Laboratory results as given in patent US11498923B2 (Merck Sharp & Dohme Corp., priority 2017, dated 2022).

Target: T1, human A2a receptor (Homo sapiens, UniProt P29274)
T1 construct: purchased Perkin-Elmer RBHA2AM400UA; host or cells: HEK293 cells, used as a membrane preparation
Experiment: A2a receptor competition binding assay (Scintillation Proximity)
Conditions: membranes from HEK293 cells expressing human A2a receptor; 0.5 nM tritiated ligand; Cheng-Prusoff; read-out: A2a Ki
Method: Binding affinities of compounds of the invention for the human A2a receptor were determined in a competition binding assay using Scintillation Proximity technology. Thus, 0.3 μg of membranes from HEK293 cells expressing the human A2a receptor were incubated with a compound of the invention at concentrations ranging from 3000 nM to 0.15 nM in a reaction mixture containing also 0.5 nM of a tritiated form of 5-amino-7-[2-phenethyl]-2-(furan-2-yl)-7H-pyrazolo[4,3-e][1,2,4]triazolo[1,5-c]pyrimidine (the tritiated compound) and 100 μg of wheat germ agglutin-coated yttrium silicate SPA beads for one hour at room temperature with agitation. The beads were then allowed to settle to the bottom of the wells for 1 hr, after which the membrane-associated radioactivity was determined by scintillation counting in a TopCount microplate reader. Ki values were determined using the Cheng-Prusoff equation.
Summary of Materials and Methods Used in A2a Activity Determination:
HEK293 cells expressing the human, rat, dog or monkey adenosine 2a receptor (Purchased from Perkin-Elmer #RBHA2AM400UA).
The Tritiated compound was prepared according to published methods.
Wheat germ agglutinin-coated yttrium silicate SPA beads (GE Healthcare #RPNQ0023). Dilute to 25 mg/ml in assay buffer.
Assay Buffer was prepared using Dulbecco's calcium and magnesium free phosphate buffered saline+10 mMMgCl2
Adenosine deaminase from calf intestine, 10 mg/2 ml (Roche #10 102 105 001).
A2a antagonist standard (9-chloro-1-(2-furanyl)-[1,2,4]triazolo1,5-c]quinazolin-5-amine from Tocris Bioscience)
Make eight 1:3 serial dilutions in 100% DMSO from a 3 mM compound stock
Transfer 50 nl of compound into a 384-well OptiPlate (Perkin Elmer).
Typically, final concentrations of compound used in the assay ranged from 3000 nM to 0.152 nM.
Dilute a solution of the Tritiated compound to 1.25 nM in assay buffer. This is a 2.5× solution. The final concentration in the assay is 0.5 nM. Calculate the concentration by counting two 5 μl aliquots.
Use 0.25 ug of membrane/well. Dilute membranes to 9.7 μg/ml in assay buffer. Treat with 20 ug/ml adenosine deaminase (ADA) for 15 minutes at room temperature to degrade endogenous adenosine.
Use 100 μg/well wheat germ agglutinin-coated yttrium silicate SPA beads.
Mix ADA-treated membranes and SPA beads together for 30 min prior to assay.
To the Perkin-Elmer Optiplate-384 containing the compound titration add 20 μl of 2.5× solution of the Tritiated compound and 30 μl of the membrane-bead mixture. Incubate for one hour at room temperature with agitation.
Include total binding (assay buffer+1% DMSO) and non-specific binding (CGS15943, 1 μM) wells.
Allow the beads to settle for one hour.
A curve fitting program (i.e., Prism, Activity Base, Chemcart) is used to determine the EC50. The Ki value is calculated using the Cheng-Prusoff equation. Ki=EC50/(1+(radioligand concentration/Kd))

T1 sequence (P29274 whole entry): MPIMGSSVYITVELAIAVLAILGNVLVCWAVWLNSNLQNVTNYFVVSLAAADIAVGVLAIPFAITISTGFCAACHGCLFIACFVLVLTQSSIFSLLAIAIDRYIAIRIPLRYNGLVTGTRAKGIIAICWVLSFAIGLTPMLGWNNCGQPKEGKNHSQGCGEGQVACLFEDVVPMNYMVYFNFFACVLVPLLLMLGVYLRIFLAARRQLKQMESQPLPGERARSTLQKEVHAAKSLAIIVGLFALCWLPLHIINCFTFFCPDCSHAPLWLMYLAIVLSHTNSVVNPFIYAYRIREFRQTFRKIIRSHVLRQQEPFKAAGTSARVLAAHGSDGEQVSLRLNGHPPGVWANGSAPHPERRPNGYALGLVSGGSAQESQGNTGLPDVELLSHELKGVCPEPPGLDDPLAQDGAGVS

Ki | Structure (SMILES)
0.31 µM | Nc1nc2c(F)cccc2c2nc(CC3CCN(Cc4cccnc4)CC3)cn12 [Ex-313, 7-fluoro-2-((1-(pyridin-3-yl-methyl)piperidin-4-yl)methyl)imidazo-[1,2-c]quinazolin-5-amine]
0.38 µM | Nc1nc2c(F)cccc2c2nc(C(=O)N3CCC4(CCNC4)C3)cn12 (centres unmarked) [Ex-272, (5-amino-7-fluoroimidazo[1,2-c]quinazolin-2-yl)(2,7-diazaspiro[4.4]nonan-2-yl)methanone]
0.0095 µM | Nc1nc2c(Br)cccc2c2nc(CNCc3cccnc3)cn12 [Ex-141, 7-bromo-2-(((pyridin-3-ylmethyl)amino)methyl) imidazo[1,2-c]quinazolin-5-amine]
0.0611 µM | COc1cccc2c1nc(N)n1cc(C(=O)N3CCC4(CCCO4)CC3)nc21 [Ex-230, (5-amino-7-methoxyimidazo[1,2-c]quinazolin-2-yl)(1-oxa-8-azaspiro[4.5]decan-8-yl)methanone]
0.0008 µM | COc1cccc2c1nc(N)n1cc(Cc3ccccc3C(F)(F)F)nc21 [Ex-17, 7-methoxy-2-(2-(trifluoromethyl)benzyl)imidazo[1,2-c]quinazolin-5-amine]
0.92 µM | Nc1nc2cc(N3CCOCC3)c(F)cc2c2nc(Cc3ccccc3)cn12 [Ex-13, 2-benzyl-9-fluoro-8-morpholinoimidazo[1,2-c]quinazolin-5-amine]
0.094 µM | COc1ccccc1CN1CCC(Cc2cn3c(N)nc4c(F)cccc4c3n2)CC1 [Ex-311, 7-fluoro-2-((1-(2-methoxybenzyl)-piperidin-4-yl)-methyl)imidazo-[1,2-c]quinazolin-5-amine]
0.0097 µM | Nc1nc2c(F)cccc2c2nc(Cc3cccc(C(=O)Nc4ccccn4)c3)cn12 [Ex-85, 3-((5-amino-7-fluoroimidazo[1,2-c]quinazolin-2-yl)methyl)-N-(pyridin-2-yl)benzamide]
0.407 µM | Nc1nc2ccccc2c2nc(-c3ccc(Br)cc3)cn12 [Ex-104, 2-(4-bromophenyl)imidazo[1,2-c]quinazolin-5-amine]
0.0045 µM | COc1cccc2c1nc(N)n1cc(C(=O)N3CCCC(C)(C)C3)nc21 [Ex-189, (5-amino-7-methoxyimidazo[1,2-c]quinazolin-2-yl)(3,3-dimethylpiperidin-1-yl)methanone]
0.0021 µM | COc1cccc2c1nc(N)n1cc(C(=O)N3CCC(C)(C)CC3)nc21 [Ex-207, (5-amino-7-methoxyimidazo[1,2-c]quinazolin-2-yl)(4,4-dimethylpiperidin-1-yl)methanone]
0.0037 µM | COc1cccc2c1nc(N)n1cc(Cc3cccnc3N3CCCCC3)nc21 [Ex-50, 7-methoxy-2-((2-(piperidin-1-yl)pyridin-3-yl)methyl)imidazo[1,2-c]quinazolin-5-amine]
0.014 µM | Nc1nc2c(F)cccc2c2nc(C(=O)NCc3ccccn3)cn12 [Ex-298, 5-amino-7-fluoro-N-(pyridin-2-ylmethyl)imidazo[1,2-c]quinazoline-2-carboxamide]
0.0023 µM | C[C@@H](NC(=O)c1cn2c(N)nc3c(F)cccc3c2n1)c1ccccc1 [Ex-297, (R)-5-amino-7-fluoro-N-(1-phenylethyl)imidazo[1,2-c]quinazoline-2-carboxamide]
0.0115 µM | COCCOc1ccc(N2CCN(Cc3ccccc3Cc3cn4c(N)nc5c(OC)cccc5c4n3)CC2)cc1 [Ex-66, 7-methoxy-2-(2-((4-(4-(2-methoxyethoxy)phenyl)piperazin-1-yl)methyl)benzyl)imidazo[1,2-c]quinazolin-5-amine]
0.0026 µM | COc1ccc2c(c1)nc(N)n1cc(Cc3ccccc3)nc21 [Ex-03, 2-benzyl-8-methoxyimidazo[1,2-c]quinazolin-5-amine]
0.0062 µM | Cc1cccc(CNC(=O)c2cn3c(N)nc4c(F)cccc4c3n2)n1 [Ex-295, 5-amino-7-fluoro-N-((6-methylpyridin-2-yl)methyl)imidazo[1,2-c]quinazoline-2-carboxamide]
0.13 µM | Nc1nc2c(F)cccc2c2nc(CN3CCC(Cc4ccccc4)CC3)cn12 [Ex-114, 2-((4-benzylpiperidin-1-yl)methyl)-7-fluoroimidazo[1,2-c]quinazolin-5-amine]

Ki | Structure (SMILES)
0.0023 µM | COc1cccc2c1nc(N)n1cc(Cc3cccnc3Cl)nc21 [Ex-38, 2-((2-chloropyridin-3-yl)methyl)-7-methoxyimidazo[1,2-c]quinazolin-5-amine]
0.0022 µM | COc1cccc2c1nc(N)n1cc(Cc3cccnc3N3CCC(c4ccccc4)CC3)nc21 [Ex-62, 7-methoxy-2-((2-(4-phenylpiperidin-1-yl)pyridin-3-yl)methyl)imidazo[1,2-c]quinazolin-5-amine]
0.036 µM | Nc1nc2c(F)cccc2c2nc(Cn3cc(-c4cccnc4)nn3)cn12 [Ex-96, 7-fluoro-2-((4-(pyridin-3-yl)-1H-1,2,3-triazol-1-yl)methyl)imidazo[1,2-c]quinazolin-5-amine]
0.0055 µM | COc1cccc2c1nc(N)n1cc(C(=O)N3CC[C@H](OC)C3)nc21 [Ex-212, (S)-(5-amino-7-methoxyimidazo[1,2-c]quinazolin-2-yl)(3-methoxypyrrolidin-1-yl)methanone]
0.082 µM | Nc1nc2c(F)cccc2c2nc(CC3CCN(C(=O)c4ccccc4)CC3)cn12 [Ex-315, (4-((5-amino-7-fluoro-imidazo[1,2-c]quina-zolin-2-yl)methyl)-piperidin-1-yl)-(phenyl)methanone]
0.022 µM | COc1cccc2c1nc(N)n1cc(C(=O)N3CCC4(CCOC4)CC3)nc21 [Ex-197, (5-amino-7-methoxyimidazo[1,2-c]quinazolin-2-yl)(2-oxa-8-azaspiro[4.5]decan-8-yl)methanone]
0.018 µM | COc1cccc2c1nc(N)n1cc(C(=O)N3CCCC(OC)(OC)C3)nc21 [Ex-232, (5-amino-7-methoxyimidazo[1,2-c]quinazolin-2-yl)(3,3-dimethoxypiperidin-1-yl)methanone]
0.015 µM | CC(C)(C)OC(=O)N1CCC2(CCCN(C(=O)c3cn4c(N)nc5c(F)cccc5c4n3)C2)C1 (centres unmarked) [Ex-260, tert-butyl 7-(5-amino-7-fluoroimidazo[1,2-c]quinazoline-2-carbonyl)-2,7-diazaspiro[4.5]decane-2-carboxylate]
0.02 µM | Nc1nc2c(F)cccc2c2nc(Cc3ccccc3CN3CCN(c4nc5ccccc5o4)CC3)cn12
0.015 µM | COc1cccc2c1nc(N)n1cc(Cc3ccc(N4CCOCC4)cc3)nc21 [Ex-41, 7-methoxy-2-(4-morpholinobenzyl)imidazo[1,2-c]quinazolin-5-amine]
0.013 µM | COc1cccc2c1nc(N)n1cc(C(=O)N3CCC(C)CC3)nc21 [Ex-193, (5-amino-7-methoxyimidazo[1,2-c]quinazolin-2-yl)(4-methylpiperidin-1-yl)methanone]
0.019 µM | Nc1nc2c(F)cccc2c2nc(C(=O)N3CCc4cc(NC(=O)c5ccccn5)ccc4C3)cn12 [Ex-286, N-(2-(5-amino-7-fluoroimidazo[1,2-c]quinazoline-2-carbonyl)-1,2,3,4-tetrahydroisoquinolin-6-yl)picolinamide]
0.0045 µM | COc1cccc2c1nc(N)n1cc(Cc3ccccc3N3CCOCC3)nc21 [Ex-19, 7-methoxy-2-(2-morpholinobenzyl)imidazo[1,2-c]quinazolin-5-amine]
0.1 µM | Nc1nc2c(F)cccc2c2nc(CC3CCN(C(=O)c4cccnc4)CC3)cn12 [Ex-317, (4-((5-amino-7-fluoroimidazo-[1,2-c]quinazolin-2-yl)methyl)piperidin-1-yl)(pyridin-3-yl)-methanone]
0.0131 µM | COc1cccc2c1nc(N)n1cc(CCN3Cc4cccnc4C3)nc21 [Ex-137, 2-(2-(5,7-dihydro-6H-pyrrolo[3,4-b]pyridin-6-yl)ethyl)-7-methoxyimidazo[1,2-c]quinazolin-5-amine]
0.032 µM | Nc1nc2c(F)cccc2c2nc(C(=O)N3CCC4(CCN(C(=O)Cc5ccc(F)c(F)c5)C4)C3)cn12 (centres unmarked) [Ex-282, 1-(7-(5-amino-7-fluoroimidazo[1,2-c]quinazoline-2-carbonyl)-2,7-diazaspiro[4.4]nonan-2-yl)-2-(3,4-difluorophenyl)ethan-1-one]
0.0112 µM | COc1cccc2c1nc(N)n1cc(Cn3cc(COC(C)=O)nn3)nc21 [Ex-99, (1-((5-amino-7-methoxyimidazo[1,2-c]quinazolin-2-yl)methyl)-1H-1,2,3-triazol-4-yl)methyl acetate]
